We go through 5 molecules from patent US4210648A, “II-Aminoacyl-5,11-dihydro-6H-pyrido(2,3-B) (1,4)benzodiazepin-6-ones and salts thereof” (Boehringer Ingelheim GmbH, priority 1977, dated 1980).

The subject of data set [1] is guinea pig colon. The data set can be described thus: spasmolytic effect in vitro on the guinea pig colon (acetylcholine-induced spasms; comparison atropinesulfate). Particulars: relative to atropine = 1. Here is the method: (§1) The compounds were examined with regard to their inhibiting effect on the formation of stress ulcers in rats and their spasmolytic effect, related to atropine, with consideration of their acute toxicity.
(§2) The spasmolytic effect was determined in vitro on the guinea pig colon, using the experimental arrangement according to R. Magnus, Pflugers Archiv, 102, pp. 123 (1904). Acetylcholine was taken to induce spasms, the substance for comparison was atropinesulfate. The spasticum was administered one minute before the administration of the spasmolytic substance, and the spasmolytic was allowed to take effect for 1 minute. […] The acute toxicity was determined after peroral administration of the test substance to fasted white mice with a body weight of 18 to 20 gm. The observation period was 14 days. For each dosage a group of six mice was used.

Data set [2] concerns stress ulcers. The data set can be described thus: inhibiting effect on the formation of stress ulcers in rats. The class given is in vivo. Here is the method:
as §1
The inhibiting effect on the formation of stress ulcers in rats was determined according to the method of K. Takagi and S. Okabe, Jap.Journ.Pharmac. 18, pp. 9 to 18 (1968). Fed female rats with a body weight between 220 and 260 gm were individually put into small wire cages and were subsequently kept vertically submerged in a water bath which was kept constant at a temperature of 23° C. for 16 hours, so that only the heads and the breastbones of the animals were above the water surface. The test compounds were administered perorally 5 to 10 minutes before. With each substance five animals were treated. 1 ml of a 0.9% physiological sodium chloride solution or 1 ml of a 1% tylose solution was administered to the control animals in the same way. After 18 hours the animals were killed by an overdose of ethyl chloride, the stomachs were excised, cut along the big curvature and spread on a cork plate. The evaluation was carried out according to the methods of Marazzi-Uberti and Turba, Med. Exp. 4, pp. 284 to 292 (1961), and Takagi and Okabe (supra).

Data set [3] concerns mouse. The data set can be described thus: acute toxicity after peroral administration to mice. The class given is in vivo. The procedure:
as §2

Assay in data set [4]: as above
Format: in vivo. Conditions: in vivo, po, mouse, observation 14 days. The procedure: as §2

Turning to `CCN1CCCC1CNCC(=O)N1c2ccccc2C(=O)N(C)c2cccnc21` (stereo not drawn) [A, 11-{[(1-Ethyl-2-pyrrolidinyl)methylamino]acetyl}-5,11-dihydro-5-methyl-6H-pyrido[2,3-b][1,4]benzodiazepin-6-one], in data set [1], the “Spasmolysis (acetylcholine) with regard to Atropin = 1” value (“Spasmolysis (acetylcholine)” below) is 1/250. For the same molecule, in data set [2], the “Ulcer-inhibition in % (rat) after peroral administr. of 12.5 mg/kg” value (“Ulcer-inhibition in % (rat) … of 12.5 mg/kg” for short) was determined as 90%, the “Ulcer-inhibition in % (rat) after peroral administr. of 25 mg/kg” value (from here on “Ulcer-inhibition in % (rat) … of 25 mg/kg”) came out at 90% and the “Ulcer-inhibition in % (rat) after peroral administr. of 50 mg/kg” value (“Ulcer-inhibition in % (rat) … of 50 mg/kg” below) was found to be 95%. In data set [3], the “animals died at 1500 mg/kg” value is listed as 2 out of 4. In data set [4], the LD50 – broadly, the dose at which mortality reaches 50% – at 336 h was ~1500 mg/kg.
Take `COC1CCN(CC(=O)N2c3ccccc3C(=O)Nc3cccnc32)CC1` [B, 5,11-Dihydro-11-[(4-methoxypiperidino)acetyl]-6H-pyrido [2,3-b]-[1,4]benzodiazepin-6-one]: the “Spasmolysis (acetylcholine)” value in data set [1] is reported as 1/125. In data set [2], the “Ulcer-inhibition in % (rat) … of 12.5 mg/kg” value came to 53%, the “Ulcer-inhibition in % (rat) … of 25 mg/kg” value is recorded as 79% and the “Ulcer-inhibition in % (rat) … of 50 mg/kg” value is listed as 89%. In addition, the “animals died at 1000 mg/kg” value in data set [3] is listed as 2 out of 5. Besides, the median lethal dose (LD50) at 336 h in data set [4] was > 1000 mg/kg.
As to `CC1CCCCN1CCC(=O)N1c2ccccc2C(=O)Nc2cccnc21` (stereo not drawn) [C, 5,11-Dihydro-11-[3-(2-methylpiperidino)propionyl]-6H-pyrido-[2,3-b][1,4]benzodiazepin-6-one], the “Spasmolysis (acetylcholine)” value in data set [1] is recorded as 1/50. Further, in data set [2], the “Ulcer-inhibition in % (rat) … of 12.5 mg/kg” value was 79%, the “Ulcer-inhibition in % (rat) … of 25 mg/kg” value is on record as 84% and the “Ulcer-inhibition in % (rat) … of 50 mg/kg” value is on record as 95%. For the same molecule, the “animals died at 1000 mg/kg” value in data set [3] is on record as 1 out of 5. In data set [4], the LD50 at 336 h is > 1000 mg/kg.
For the molecule `O=C1Nc2cccnc2N(C(=O)CCN2CCCCC2)c2ccccc21` [D, 5,11-Dihydro-11-(3-piperidinopropionyl)-6H-pyrido [2,3-b][1,4]-benzodiazepin-6-one], in data set [1], the “Spasmolysis (acetylcholine)” value is listed as 1/125. Moreover, in data set [2], the “Ulcer-inhibition in % (rat) … of 12.5 mg/kg” value worked out at 58%, the “Ulcer-inhibition in % (rat) … of 25 mg/kg” value came to 69% and the “Ulcer-inhibition in % (rat) … of 50 mg/kg” value stood at 84%. Besides, in data set [3] (2000 mg/kg), the “animals died at 2000 mg/kg” value is 3 out of 5. In addition, the median lethal dose (LD50) at 336 h in data set [4] is ~2000 mg/kg.
Regarding `O=C1Nc2cccnc2N(C(=O)CCCN2CCCC2)c2ccccc21` [E, 5,11-Dihydro-11-(4-pyrrolidino-butyryl)-6H-pyrido[2,3-b][1,4]-benzodiazepin-6-one], the “Spasmolysis (acetylcholine)” value in data set [1] was 1/190. In data set [2], the “Ulcer-inhibition in % (rat) … of 12.5 mg/kg” value is on record as 18%, the “Ulcer-inhibition in % (rat) … of 25 mg/kg” value worked out at 58% and the “Ulcer-inhibition in % (rat) … of 50 mg/kg” value is 79%. Besides, the “animals died at 1500 mg/kg” value in data set [3] is reported as 1 out of 6. Besides, the 50% lethal dose (LD50) at 336 h in data set [4] is > 1500 mg/kg.
